Read-outs that look alike come from different tables or passages of the source.
Assays:
[1] = system: PC12 mHTT^Q103 cells; test: Rescue of PC12 cells from mHTT^Q103 induced cell death (Alamar blue viability); type: cell-based; conditions: Rattus norvegicus
[2] = Solubility; conditions: DMSO, Table 5
[3] = molecular target: T1, PDIa (Homo sapiens, UniProt P07237); test: Size-exclusion buffer dialysis for reversibility of binding (fluorescence); conditions: PDIa 20 μM treated with LOC14 300 μM overnight, 10 kDa filter dialysis
T1 construct: made in house; host or cells: Escherichia coli BL21-Gold (DE3)
T1 sequence (P07237 with tags, fused parts or gaps): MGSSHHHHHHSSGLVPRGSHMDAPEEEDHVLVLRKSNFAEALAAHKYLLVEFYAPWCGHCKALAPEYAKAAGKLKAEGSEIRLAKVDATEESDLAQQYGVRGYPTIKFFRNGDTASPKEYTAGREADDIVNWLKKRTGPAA
Experimental: Prior to dialysis, fluorescence emission spectra were recorded from 315 nm-550 nm wavelength with excitation at 280 nm on a Tecan Infinite 200 microplate reader. Fluorescence readings were carried out in a 384-well low volume, black bottom plate. Each well contained 40 μl of either LOC14 (300 μM), PDIa (20 μM), or PDIa (20 μM) treated with LOC14 (300 μM) overnight. All samples were dissolved in buffer B (20 mM sodium phosphate buffer pH 7.8). After recording the initial fluorescence spectra, samples were then transferred to Amicon Ultra 10 kDa size exclusion filter spin columns for dialysis. […] This step was repeated three more times with fresh buffer B. 40 μl of the collected samples from the flow-through and the spin-column chamber were transferred to a new 384-well plate and the emission spectra recorded as described above.
To investigate the mode of binding further and to determine whether the binding was reversible or irreversible, the fluorescence of the LOC14-PDIa complex was analyzed before and after buffer dialysis. […] If LOC14 binds irreversibly to the protein, then the same fluorescence spectrum of the LOC14-PDIa complex would be seen before and after dialysis in the dialysis chamber and none in the buffer compartment, assuming the fluorescence of LOC14 was not dramatically altered upon binding. […]

For `O=C(C1CC1)N1CCN(Cn2sc3ccccc3c2=O)CC1` [LOC14, 2-((4-(cyclopropanecarbonyl)piperazin-1-yl)methyl)benzo[d]isothiazol-3(2H)-one], the EC50 ([1]; PC-12, 48 h, read-out: EC50, rescue of PC12 mHTT^Q103 cells) was 500 nM, the EC50 ([1]; PC-12, read-out: Cell Viability Assay EC50) was 102 nM and the “Solubility in DMSO” value [2] was 100 mM in DMSO. For the same compound, the “binding to PDIa reversible or irreversible” value [3] was “reversible”.
